Reference: US5534508A, “Cephem compounds and antimicrobial agents” (Katayama Seiyakusyo Co., Ltd., priority 1993, dated 1996)
≈ marks a conversion by molar mass, not a printed value.

Key:
Assay type in all cases: cell-based
S. aureus 209p JC-1 = experiment: MIC against standard strains (Table 1), S. aureus 209p JC-1; conditions: Staphylococcus aureus, Muller-Hinton agar, overnight 37° C., read-out: MIC (minimum growth inhibitory concentration)
Procedure: (§1) The minimum growth inhibitory concentration (MIC, μg/ml) of the compounds for each of the 25 standard laboratory strains (standard strains) shown in Table 1 was determined in accordance with the standard method of the Japan Chemotherapical Society (Chemotherapy, 29, 76-79 (1981) under "Re-revision of the measuring methods of minimum growth inhibitory concentration (MIC)").
(§2) That is, by using each test strain cultured overnight at 37° C. in a Muller-Hinton broth, there was prepared a bacterial solution with a cell density of 1×10^6 CFU/ml in the same broth. The bacterial solution was inoculated into the Muller-Hinton agar media each containing respectively one test agent (i.e., compound) and, after overnight incubation at 37° C., the minimum concentration that inhibited growth of the bacteria was determined and expressed as MIC.
(§3) Staphylococcus aureus 167 and Staphylococcus aureus 195 used in the test were MRSA. CTM (cefotiam) and FMOX (flomoxef) were used as the control agents.

S. aureus Smith = experiment: MIC against standard strains (Table 1), S. aureus Smith; conditions: Staphylococcus aureus, Muller-Hinton agar, overnight 37° C., read-out: MIC (minimum growth inhibitory concentration)
Procedure: as §1, §2, §3

S. aureus 195 = experiment: MIC against standard strains (Table 1), S. aureus 195 (MRSA); conditions: Staphylococcus aureus, Muller-Hinton agar, overnight 37° C., read-out: MIC (minimum growth inhibitory concentration)
Procedure: as §1, §2, §3

S. epidemidis IAM 1296 = experiment: MIC against standard strains (Table 1), S. epidemidis IAM 1296; conditions: Muller-Hinton agar, overnight 37° C., read-out: MIC (minimum growth inhibitory concentration)
Procedure: as §1, §2, §3

M. luteus ATCC 9341 = experiment: MIC against standard strains (Table 1), M. luteus ATCC 9341; conditions: Micrococcus luteus, ATCC9341, Muller-Hinton agar, overnight 37° C., read-out: MIC (minimum growth inhibitory concentration)
Procedure: as §1, §2, §3

B. subtilis ATCC 6633 = experiment: MIC against standard strains (Table 1), B. subtilis ATCC 6633; conditions: Bacillus subtilis, ATCC6633, Muller-Hinton agar, overnight 37° C., read-out: MIC (minimum growth inhibitory concentration)
Procedure: as §1, §2, §3

E. coli JC-2 = experiment: MIC against standard strains (Table 1), E. coli JC-2; conditions: Escherichia coli, JC2, Muller-Hinton agar, overnight 37° C., read-out: MIC (minimum growth inhibitory concentration)
Procedure: as §1, §2, §3

E. coli CSH2(RK1) = experiment: MIC against standard strains (Table 1), E. coli CSH2(RK1); conditions: Escherichia coli, read-out: MIC (minimum growth inhibitory concentration)
Procedure: as §1, §2, §3

E. coli CSH2(RE45) = experiment: MIC against standard strains (Table 1), E. coli CSH2(RE45); conditions: Escherichia coli, read-out: MIC (minimum growth inhibitory concentration)
Procedure: as §1, §2, §3

K. pneuminiae IFO 3317 = experiment: MIC against standard strains (Table 1), K. pneuminiae IFO 3317; conditions: Muller-Hinton agar, overnight 37° C., read-out: MIC (minimum growth inhibitory concentration)
Procedure: as §1, §2, §3

K. pneuminiae No. 42 = experiment: MIC against standard strains (Table 1), K. pneuminiae No. 42; conditions: Muller-Hinton agar, overnight 37° C., read-out: MIC (minimum growth inhibitory concentration)
Procedure: as §1, §2, §3

P. mirabilis IFO 3849 = experiment: MIC against standard strains (Table 1), P. mirabilis IFO 3849; conditions: Proteus mirabilis, IFO3849, Muller-Hinton agar, overnight 37° C., read-out: MIC (minimum growth inhibitory concentration)
Procedure: as §1, §2, §3

P. vulugaris OX-19 = experiment: MIC against standard strains (Table 1), P. vulugaris OX-19; conditions: Muller-Hinton agar, overnight 37° C., read-out: MIC (minimum growth inhibitory concentration)
Procedure: as §1, §2, §3

M. morganii IFO 3848 = experiment: MIC against standard strains (Table 1), M. morganii IFO 3848; conditions: Morganella morganii, IFO3848, Muller-Hinton agar, overnight 37° C., read-out: MIC (minimum growth inhibitory concentration)
Procedure: as §1, §2, §3

S. marcescens IAM 1184 = experiment: MIC against standard strains (Table 1), S. marcescens IAM 1184; conditions: Serratia marcescens, IAM1184, Muller-Hinton agar, overnight 37° C., read-out: MIC (minimum growth inhibitory concentration)
Procedure: as §1, §2, §3

S. marcescens No. 16-2 = experiment: MIC against standard strains (Table 1), S. marcescens No. 16-2; conditions: Serratia marcescens, NO.162, Muller-Hinton agar, overnight 37° C., read-out: MIC (minimum growth inhibitory concentration)
Procedure: as §1, §2, §3

E. cloacae ATCC 13407 = experiment: MIC against standard strains (Table 1), E. cloacae ATCC 13407; conditions: Enterobacter cloacae, ATCC13407, Muller-Hinton agar, overnight 37° C., read-out: MIC (minimum growth inhibitory concentration)
Procedure: as §1, §2, §3

E. cloacae Nek39 = experiment: MIC against standard strains (Table 1), E. cloacae Nek39; conditions: Enterobacter cloacae, Muller-Hinton agar, overnight 37° C., read-out: MIC (minimum growth inhibitory concentration)
Procedure: as §1, §2, §3

C. freundii ATCC 8090 = experiment: MIC against standard strains (Table 1), C. freundii ATCC 8090; conditions: Citrobacter freundii, ATCC8090, Muller-Hinton agar, overnight 37° C., read-out: MIC (minimum growth inhibitory concentration)
Procedure: as §1, §2, §3

P. aeruginosa NCTC 10490 = experiment: MIC against standard strains (Table 1), P. aeruginosa NCTC 10490; conditions: Pseudomonas aeruginosa, NCTC10490, Muller-Hinton agar, overnight 37° C., read-out: MIC (minimum growth inhibitory concentration)
Procedure: as §1, §2, §3

P. aeruginosa AKR17 = experiment: MIC against standard strains (Table 1), P. aeruginosa AKR17; conditions: Pseudomonas aeruginosa, Muller-Hinton agar, overnight 37° C., read-out: MIC (minimum growth inhibitory concentration)
Procedure: as §1, §2, §3

P. cepacia CN 9113 = experiment: MIC against standard strains (Table 1), P. cepacia CN 9113; conditions: Burkholderia cepacia, CN9113, Muller-Hinton agar, overnight 37° C., read-out: MIC (minimum growth inhibitory concentration)
Procedure: as §1, §2, §3

A. faecalis ATCC 3750 = experiment: MIC against standard strains (Table 1), A. faecalis ATCC 3750; conditions: Alcaligenes faecalis, ATCC3750, Muller-Hinton agar, overnight 37° C., read-out: MIC (minimum growth inhibitory concentration)
Procedure: as §1, §2, §3

A. calcoaceticos T59 = experiment: MIC against standard strains (Table 1), A. calcoaceticos T59; conditions: Muller-Hinton agar, overnight 37° C., read-out: MIC (minimum growth inhibitory concentration)
Procedure: as §1, §2, §3

clinically isolated MRSA = experiment: Antibacterial potency against clinically isolated MRSA (47 strains); conditions: Staphylococcus aureus
Procedure: A test on the antibacterial potency against clinically isolated MRSA was conducted in the following way.
That is, using 47 strains of clinically isolated MRSA, MIC was determined for each of the test strains in accordance with the standard method of the Japan Chemotherapical Society as in Test Example 1, and the minimum growth inhibitory concentration which inhibited growth of 50% of the strains tested was expressed as MIC50 (μg/ml), and the minimum growth inhibitory concentration which inhibited growth of 90% of the strains tested was expressed as MIC90 (μg/ml).
In this test, FMOX was used as the control agent.

S. aureus 167 = experiment: MIC against standard strains (Table 1), S. aureus 167 (MRSA); conditions: Staphylococcus aureus, Muller-Hinton agar, overnight 37° C., read-out: MIC (minimum growth inhibitory concentration)
Procedure: as §1, §2, §3

Structure (SMILES) | MIC (S. aureus 209p JC-1) [µg/mL] | MIC (S. aureus Smith) [µg/mL] | MIC (S. aureus 195) [µg/mL] | MIC (S. epidemidis IAM 1296) [µg/mL] | MIC (M. luteus ATCC 9341) [µg/mL] | MIC (B. subtilis ATCC 6633) [µg/mL] | MIC (E. coli JC-2) [µg/mL] | MIC (E. coli CSH2(RK1)) [µg/mL] | MIC (E. coli CSH2(RE45)) [µg/mL] | MIC (K. pneuminiae IFO 3317) [µg/mL] | MIC (K. pneuminiae No. 42) [µg/mL] | MIC (P. mirabilis IFO 3849) [µg/mL] | MIC (P. vulugaris OX-19) [µg/mL] | MIC (M. morganii IFO 3848) [µg/mL] | MIC (S. marcescens IAM 1184) [µg/mL] | MIC (S. marcescens No. 16-2) [µg/mL] | MIC (E. cloacae ATCC 13407) [µg/mL] | MIC (E. cloacae Nek39) [µg/mL] | MIC (C. freundii ATCC 8090) [µg/mL] | MIC (P. aeruginosa NCTC 10490) [µg/mL] | further results
CO[C@@]1(NC(=O)CSC(F)F)C(=O)N2C(C(=O)O)=C(CSc3nnnn3CCO)CO[C@@H]21 [FMOX, flomoxef, reference compound] | 0.39 (≈ 0.786 µM) | 0.39 (≈ 0.786 µM) | 3.13 (≈ 6.3 µM) | 0.2 (≈ 0.403 µM) | 0.1 (≈ 0.201 µM) | 0.2 (≈ 0.403 µM) | 0.1 (≈ 0.201 µM) | 0.1 (≈ 0.201 µM) | 0.1 (≈ 0.201 µM) | 0.05 (≈ 0.101 µM) | 0.1 (≈ 0.201 µM) | 0.2 (≈ 0.403 µM) | 0.39 (≈ 0.786 µM) | 0.39 (≈ 0.786 µM) | 0.2 (≈ 0.403 µM) | 100 (≈ 201 µM) | 100 (≈ 201 µM) | 100 (≈ 201 µM) | 0.2 (≈ 0.403 µM) | > 100 | MIC (P. aeruginosa AKR17): > 100 µg/mL; MIC (P. cepacia CN 9113): 100 µg/mL (≈ 201 µM); MIC (A. faecalis ATCC 3750): 0.1 µg/mL (≈ 0.201 µM); MIC (A. calcoaceticos T59): 100 µg/mL (≈ 201 µM); MIC50 (clinically isolated MRSA; concentration inhibiting growth of 50% of 47 clinically isolated MRSA strains): 5.13 µg/mL (≈ 10.3 µM); MIC90 (clinically isolated MRSA; concentration inhibiting growth of 90% of 47 clinically isolated MRSA strains): 32.1 µg/mL (≈ 64.6 µM)
Nc1nc(/C(=N/O)C(=O)N[C@@H]2C(=O)N3C(C(=O)[O-])=C(/C=C/C[n+]4cccc(-c5csc(N)n5)c4)CS[C@H]23)cs1 [Compound 12, 7β-[2-(2-aminothiazol-4-yl)-2-syn-hydroxyiminoacetamido]-3-[(E)-3-[3-(2-aminothiazol-4-yl)pyridinio]-1-propenyl]-3-cephem-4-carboxylate] | 0.1 (≈ 0.171 µM) | 0.1 (≈ 0.171 µM) | 1.56 (≈ 2.67 µM) | 0.05 (≈ 0.0855 µM) | 0.05 (≈ 0.0855 µM) | 0.2 (≈ 0.342 µM) | 0.05 (≈ 0.0855 µM) | 0.2 (≈ 0.342 µM) | 0.1 (≈ 0.171 µM) | 0.05 (≈ 0.0855 µM) | 0.1 (≈ 0.171 µM) | 0.1 (≈ 0.171 µM) | 0.05 (≈ 0.0855 µM) | 0.025 (≈ 0.0428 µM) | 0.1 (≈ 0.171 µM) | 12.5 (≈ 21.4 µM) | 0.39 (≈ 0.667 µM) | 6.25 (≈ 10.7 µM) | 0.05 (≈ 0.0855 µM) | 3.13 (≈ 5.35 µM) | MIC (S. aureus 167): 25 µg/mL (≈ 42.8 µM); MIC (P. aeruginosa AKR17): > 100 µg/mL; MIC (P. cepacia CN 9113): > 100 µg/mL; MIC (A. faecalis ATCC 3750): 1.56 µg/mL (≈ 2.67 µM); MIC (A. calcoaceticos T59): 12.5 µg/mL (≈ 21.4 µM)
CN(C)CCn1nnnc1SCC1=C(C(=O)O)N2C(=O)[C@@H](NC(=O)Cc3csc(N)n3)[C@H]2SC1 [CTM, cefotiam, reference compound] | 0.78 (≈ 1.48 µM) | 0.78 (≈ 1.48 µM) | > 100 | 0.39 (≈ 0.742 µM) | 0.39 (≈ 0.742 µM) | 0.39 (≈ 0.742 µM) | 0.2 (≈ 0.38 µM) | 0.2 (≈ 0.38 µM) | 0.39 (≈ 0.742 µM) | 0.2 (≈ 0.38 µM) | 0.39 (≈ 0.742 µM) | 0.39 (≈ 0.742 µM) | 0.39 (≈ 0.742 µM) | 0.2 (≈ 0.38 µM) | 3.13 (≈ 5.95 µM) | > 100 | > 100 | > 100 | 0.78 (≈ 1.48 µM) | 100 (≈ 190 µM) | MIC (S. aureus 167): > 100 µg/mL; MIC (P. aeruginosa AKR17): > 100 µg/mL; MIC (P. cepacia CN 9113): > 100 µg/mL; MIC (A. faecalis ATCC 3750): 3.13 µg/mL (≈ 5.95 µM); MIC (A. calcoaceticos T59): > 100 µg/mL
